Measured values taken from PubChem BioAssay AID330 (DTP/NCI, 2004).
Values joined by “and” are separate entries in the source; they are usually repeats but may differ in a detail not shown here. Identical values can stand only once. Inconclusive results and toxic doses are left out.

Test system: P388 leukemia ip, CD2F1 mice, survival T/C
Experiment: NCI In Vivo Anticancer Drug Screen. Data for tumor model P388 Leukemia (intraperitoneal) in CD2F1 (CDF1) mice
Conditions: endpoint: median survival time, higher = longer survival
Summary of the method: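 Mice carrying the transplanted tumor received test compound or vehicle. Survival was recorded in each group, and the value is the treated-group measurement divided by that of the vehicle-treated control group.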

[1] = dose: 50.0 mg/kg/injection, schedule: Q04DX002 (ip), vehicle: saline with Tween-80
[2] = dose: 100.0 mg/kg/injection, schedule: Q04DX002 (ip), vehicle: saline with Tween-80
[3] = dose: 200.0 mg/kg/injection, schedule: Q04DX002 (ip), vehicle: saline with Tween-80
[4] = dose: 100.0 mg/kg/injection, schedule: Q04DX003 (ip), vehicle: saline
[5] = dose: 50.0 mg/kg/injection, schedule: Q01DX009 (ip), vehicle: saline with Tween-80
[6] = dose: 100.0 mg/kg/injection, schedule: Q01DX009 (ip), vehicle: saline with Tween-80
[7] = dose: 200.0 mg/kg/injection, schedule: Q01DX009 (ip), vehicle: saline with Tween-80
[8] = dose: 50.0 mg/kg/injection, schedule: Q01DX009 (ip), vehicle: saline
[9] = dose: 100.0 mg/kg/injection, schedule: Q01DX009 (ip), vehicle: saline
[10] = dose: 200.0 mg/kg/injection, schedule: Q01DX009 (ip), vehicle: saline
[11] = dose: 400.0 mg/kg/injection, schedule: Q01DX009 (ip), vehicle: saline
[12] = dose: 25.0 mg/kg/injection, schedule: Q01DX009 (ip), vehicle: saline
[13] = dose: 60.0 mg/kg/injection, schedule: Q01DX005 (ip), vehicle: saline with Tween-80
[14] = dose: 120.0 mg/kg/injection, schedule: Q01DX005 (ip), vehicle: saline with Tween-80
[15] = dose: 240.0 mg/kg/injection, schedule: Q01DX005 (ip), vehicle: saline with Tween-80
[16] = dose: 50.0 mg/kg/injection, schedule: Q01DX005 (ip), vehicle: saline with Tween-80
[17] = dose: 100.0 mg/kg/injection, schedule: Q01DX005 (ip), vehicle: saline with Tween-80
[18] = dose: 200.0 mg/kg/injection, schedule: Q01DX005 (ip), vehicle: saline with Tween-80
[19] = dose: 50.0 mg/kg/injection, schedule: Q01DX009 (ip), vehicle: suspension in saline
[20] = dose: 100.0 mg/kg/injection, schedule: Q01DX009 (ip), vehicle: suspension in saline
[21] = dose: 200.0 mg/kg/injection, schedule: Q01DX009 (ip), vehicle: suspension in saline
[22] = dose: 50.0 mg/kg/injection, schedule: Q01DX005 (ip), vehicle: Klucel (hydroxypropylcellulose) (HPC)

CNC(=O)N(C)c1nc(-c2ccccc2)c(-c2ccccc2)n1Cc1ccc(Cl)cc1
T/C [1]: 94 % of control | T/C [2]: 99 % of control | T/C [3]: 92 % of control

CC1(C)N=C(N)N=C(N)N1c1ccc(CNC(=O)Nc2cccc(S(=O)(=O)F)c2)cc1
T/C [4]: 154 % of control | T/C (dose: 150.0 mg/kg/injection, schedule: Q04DX003 (ip), vehicle: saline): 168 % of control | T/C (dose: 225.0 mg/kg/injection, schedule: Q04DX003 (ip), vehicle: saline): 200 % of control

CCCC(NC(=O)c1ccccc1)C(=O)O (stereo not given)
T/C [5]: 100 % of control | T/C [6]: 99 % of control | T/C [7]: 99 % of control

O=C(CCl)Nc1nc(=O)[nH]s1
T/C (dose: 50.0 mg/kg/injection, schedule: Q01DX009 (ip), vehicle: Klucel (hydroxypropylcellulose) (HPC)): 107 % of control | T/C (dose: 100.0 mg/kg/injection, schedule: Q01DX009 (ip), vehicle: Klucel (hydroxypropylcellulose) (HPC)): 107 % of control

O=C(Oc1ccc[nH]c1=O)C12CC3CC(CC(C3)C1)C2
T/C [8]: 101 % of control | T/C [9]: 100 % of control | T/C [10]: 98 % of control and 94 % of control | T/C [11]: 99 % of control and 93 % of control

[O-][n+]1cc(Cl)cc(Cl)c1
T/C [12]: 100 % of control and 106 % of control | T/C [8]: 108 % of control and 96 % of control | T/C [9]: 100 % of control and 96 % of control | T/C [10]: 99 % of control and 102 % of control | T/C [11]: 99 % of control and 96 % of control

CS(C)=C1C(=O)C(=O)C(=S(C)C)C(=O)C1=O
T/C [13]: 107 % of control | T/C [14]: 104 % of control | T/C [15]: 100 % of control

C(CSC1=NCCN1)CSC1=NCCN1
T/C [12]: 120 % of control | T/C [8]: 117 % of control

CCOc1ccncc1[N+](=O)[O-]
T/C (dose: 25.0 mg/kg/injection, schedule: Q01DX009 (ip), vehicle: saline sonified): 100 % of control | T/C (dose: 50.0 mg/kg/injection, schedule: Q01DX009 (ip), vehicle: saline sonified): 109 % of control | T/C [13]: 101 % of control | T/C (dose: 100.0 mg/kg/injection, schedule: Q01DX009 (ip), vehicle: saline sonified): 90 % of control | T/C [14]: 93 % of control | T/C [15]: 95 % of control

c1ccc2c(NCC3CCNCC3)c3ccccc3nc2c1
T/C (dose: 25.0 mg/kg/injection, schedule: Q04DX002 (ip), vehicle: saline with Tween-80): 124 % of control | T/C [1]: 112 % of control

COC(=O)c1ccoc1
T/C [5]: 96 % of control | T/C [8]: 116 % of control | T/C [6]: 108 % of control | T/C [7]: 123 % of control | T/C [10]: 113 % of control | T/C [11]: 107 % of control

Cc1cncn2ncnc12
T/C [4]: 100 % of control | T/C (dose: 200.0 mg/kg/injection, schedule: Q04DX003 (ip), vehicle: saline): 95 % of control | T/C (dose: 400.0 mg/kg/injection, schedule: Q04DX003 (ip), vehicle: saline): 95 % of control

O=C(CNC(=O)OCc1ccccc1)Oc1ccccc1[N+](=O)[O-]
T/C [5]: 94 % of control | T/C [6]: 100 % of control | T/C [7]: 111 % of control

O=c1c2ccccc2[nH]c2cc([N+](=O)[O-])cc([N+](=O)[O-])c12
T/C [16]: 90 % of control | T/C [17]: 90 % of control | T/C [18]: 98 % of control

Nc1nc2ncnc(N)c2nc1-c1ccc(N(CCO)CCO)cc1
T/C (dose: 60.0 mg/kg/injection, schedule: Q01DX005 (ip), vehicle: Klucel (hydroxypropylcellulose) (HPC)): 91 % of control | T/C (dose: 120.0 mg/kg/injection, schedule: Q01DX005 (ip), vehicle: Klucel (hydroxypropylcellulose) (HPC)): 90 % of control | T/C (dose: 240.0 mg/kg/injection, schedule: Q01DX005 (ip), vehicle: Klucel (hydroxypropylcellulose) (HPC)): 91 % of control

N#Cc1ncc(C(Cl)Cl)nc1Cl
T/C [12]: 108 % of control | T/C [8]: 106 % of control

NC1CCC(O)CC1C(=O)O (stereo not given)
T/C [16]: 99 % of control | T/C [17]: 103 % of control | T/C [18]: 86 % of control

C1=Cc2ccccc2C(c2ccccc2)S1 (stereo not given)
T/C [8]: 98 % of control | T/C [9]: 88 % of control | T/C [10]: 93 % of control | T/C [11]: 89 % of control

N#CC1CCCC(C#N)N1 (stereo not given)
T/C (dose: 6.25 mg/kg/injection, schedule: Q01DX005 (ip), vehicle: saline): 100 % of control | T/C (dose: 12.5 mg/kg/injection, schedule: Q01DX005 (ip), vehicle: saline): 88 % of control | T/C (dose: 25.0 mg/kg/injection, schedule: Q01DX005 (ip), vehicle: saline): 100 % of control

CCC1(C)CCC(C)(CC)c2c(C)cc(C(C)=O)cc21 (stereo not given)
T/C (dose: 100.0 mg/kg/injection, schedule: Q04DX003 (ip), vehicle: saline with Tween-80): 114 % of control | T/C (dose: 200.0 mg/kg/injection, schedule: Q04DX003 (ip), vehicle: saline with Tween-80): 97 % of control | T/C (dose: 400.0 mg/kg/injection, schedule: Q04DX003 (ip), vehicle: saline with Tween-80): 92 % of control

CSc1ccc(NC(=S)SCc2ccc3c(c2)OCO3)cc1Cl
T/C [19]: 105 % of control | T/C [20]: 101 % of control | T/C [21]: 98 % of control

O=C(O)c1cn2ccccc2c1[N+](=O)[O-]
T/C [2]: 94 % of control | T/C [3]: 92 % of control | T/C (dose: 400.0 mg/kg/injection, schedule: Q04DX002 (ip), vehicle: saline with Tween-80): 96 % of control

Cc1cccc(C)c1NC1c2ccccc2C=Cc2ccccc21
T/C [5]: 87 % of control | T/C [6]: 89 % of control

CN(C[CH2][Sn]([CH3])([CH3])[Cl])C[CH2][Sn]([CH3])([CH3])[Cl]
T/C (dose: 3.75 mg/kg/injection, schedule: Q01DX005 (ip), vehicle: saline): 102 % of control | T/C (dose: 7.5 mg/kg/injection, schedule: Q01DX005 (ip), vehicle: saline): 121 % of control

COC(=O)C1=C(O)C(C(=O)OC)C2C(C(=O)OC)=C(O)C(C(=O)OC)C12 (stereo not given)
T/C [22]: 97 % of control | T/C (dose: 100.0 mg/kg/injection, schedule: Q01DX005 (ip), vehicle: Klucel (hydroxypropylcellulose) (HPC)): 103 % of control | T/C (dose: 200.0 mg/kg/injection, schedule: Q01DX005 (ip), vehicle: Klucel (hydroxypropylcellulose) (HPC)): 92 % of control

NCCc1c[nH]c2ccc(OCc3ccccc3)cc12
T/C (dose: 50.0 mg/kg/injection, schedule: Q04DX003 (ip), vehicle: saline): 109 % of control | T/C [4]: 116 % of control

COC(=O)C1=NC(=N)N=C(C(=O)OC)C1(C)C(=O)c1ccc(Cl)cc1 (stereo not given)
T/C [13]: 100 % of control and 104 % of control | T/C [14]: 98 % of control | T/C [15]: 99 % of control

N#Cc1ncc(Cl)c2ccccc12
T/C [19]: 90 % of control | T/C [20]: 87 % of control | T/C [21]: 97 % of control

CC(=O)Oc1cc2c(cc1OC(C)=O)OCC(c1ccc(C)cc1)C2 (stereo not given)
T/C [13]: 105 % of control | T/C [14]: 108 % of control | T/C [15]: 107 % of control

CN1CC(O)C2=CC(=O)C(=O)C(I)=C21 (stereo not given)
T/C (dose: 30.0 mg/kg/injection, schedule: Q01DX005 (ip), vehicle: saline + Tween-80 + alcohol): 108 % of control | T/C [22]: 109 % of control | T/C (dose: 60.0 mg/kg/injection, schedule: Q01DX005 (ip), vehicle: saline + Tween-80 + alcohol): 101 % of control | T/C (dose: 240.0 mg/kg/injection, schedule: Q01DX005 (ip), vehicle: saline + Tween-80 + alcohol): 114 % of control

CCOC(=O)C1=C(C(=O)c2ccc(C)cc2)C(c2c(Cl)cccc2Cl)C(C(=O)c2ccc(C)cc2)=C(C(=O)OCC)N1
T/C (dose: 30.0 mg/kg/injection, schedule: Q01DX005 (ip), vehicle: saline with Tween-80): 104 % of control | T/C [13]: 102 % of control | T/C [14]: 104 % of control and 90 % of control | T/C [15]: 88 % of control

CCCCCCCCCCCC1N=C(N)N=C(N)N1c1cccc(Br)c1 (stereo not given)
T/C (dose: 12.5 mg/kg/injection, schedule: Q01DX005 (ip), vehicle: saline with Tween-80): 100 % of control | T/C (dose: 25.0 mg/kg/injection, schedule: Q01DX005 (ip), vehicle: saline with Tween-80): 112 % of control | T/C [16]: 97 % of control

c1ccc(-c2cnn3nnnc3n2)cc1
T/C (dose: 100.0 mg/kg/injection, schedule: Q01DX001 (ip), vehicle: saline): 104 % of control | T/C (dose: 200.0 mg/kg/injection, schedule: Q01DX001 (ip), vehicle: saline): 102 % of control | T/C (dose: 400.0 mg/kg/injection, schedule: Q01DX001 (ip), vehicle: saline): 101 % of control

COc1cc2oc(=O)cc(C)c2cc1[N+](=O)[O-]
T/C [19]: 98 % of control | T/C [20]: 95 % of control | T/C [21]: 96 % of control

O=C1SC(c2ccccc2)=S=C1c1ccccc1
T/C [5]: 104 % of control | T/C [6]: 104 % of control | T/C [7]: 124 % of control
